These results are taken from US9527853B2, “Fused triazole derivatives as gamma secretase modulators” (Ares Trading S.A., priority 2012, dated 2016).

The test system of test [1] is Aβ42. Description: Amyloidβ peptide release (Aβ42) assay, AlphaLisa on supernatant of APPswe-HEK cells. The test is classed as cell-based. The note with it: Homo sapiens, 24 hours incubation with compound, read-out: Ab42 IC50 Ranges. As to the method:
(§1) Amyloidβ Peptide Release (Aβ42 & AβTotal) Assay to Determine IC50 Values.
(§2) Amyloidβ peptide release (Aβ42 & AβTotal) assay are performed in 384 well microtiter plates (Perkin Elmer AlphaPlate #6008350) in a final volume of 20 μl, using supernatant coming from APPswe-HEK cells exposed to test compounds. Compounds are dissolved in and diluted in 100% DMSO and incubated with APPswe-HEK cells for 24 hours a 37° C. in 5% CO2. The supernatant from APPswe-HEK cells are mixed with antibodies: for Aβ42 detection: AlphaLisa Amyloid β 1-42 Kit (Perkin Elmer AL203L) Anti-Amyloid β1-42-specific antibody acceptor beads, biotinylated anti-Amyloid “β1-42” antibody and streptavidin (SA) donor beads diluted in AlphaLisa buffer (to the instructions of the supplier). For Aβ total detection: Custom Anti-Amyloid βtotal acceptor beads (6E10 acceptor beads), biotinylated anti-Amyloid “β1-42” antibody (Perkin Elmer AL203L) and streptavidin (SA) donor beads diluted in AlphaLisa buffer (to the instructions of the supplier). After addition of supernatant to the antibody mix, the assay is incubated 4 h and 30 minutes. AmyloidP peptide release (Aβ42 & AβTotal) is measured with a Pherastar FS (BMG) multimode reader using the alphascreen module.
(Bead proximity is the source of the signal in Alpha formats.)

Test [2] has as its system AβTotal. Description: Amyloidβ peptide release (AβTotal) assay, AlphaLisa on supernatant of APPswe-HEK cells. It is filed as cell-based, human. The note with it: 24 hours, ratio Abtot versus Ab42. As to the method: as §1, §2

A word on the IC50: it is the concentration at which inhibition is half-maximal. With `COc1cc(NC(=O)c2nnn3c2CCCC3c2cccc(C(F)(F)F)c2)ccc1-n1cnc(C)c1` (centres unmarked) [Example 22, N-(3-methoxy-4-(4-methyl-1H-imidazol-1-yl)phenyl)-7-(3-(trifluoromethyl)phenyl)-4,5,6,7-tetrahydro-[1,2,3]triazolo[1,5-a]pyridine-3-carboxamide], the IC50 in test [1] was in the range of 150 to 500 nM. Further, the Abtot/Ab42 selectivity ranges entry in test [2] is recorded as “b (b: 100 fold > selectivity ≧ 50 fold)”.
Consider `COc1cc(C(=O)Nc2nnn3c2CCCC3c2cccc(C(F)(F)F)c2)ccc1-n1cnc(C)c1` (centres unmarked) [Example 42, 3-methoxy-4-(4-methyl-1H-imidazol-1-yl)-N-(7-(3-(trifluoromethyl)phenyl)-4,5,6,7-tetrahydro-[1,2,3]triazolo[1,5-a]pyridin-3-yl)benzamide], for which, in test [1], the IC50 lay in the range of 500 to 1000 nM. Besides, in test [2], the Abtot/Ab42 selectivity ranges result was “c (c: 50 fold > selectivity ≧ 10 fold)”.
For the compound `COc1cc(Nc2nnn3c2CCCC3c2ccc(Cl)cc2)ccc1-n1cnc(C)c1` (centres unmarked) [Example 4, 7-(4-chlorophenyl)-N-(3-methoxy-4-(4-methyl-1H-imidazol-1-yl)phenyl)-4,5,6,7-tetrahydro-[1,2,3]triazolo[1,5-a]pyridin-3-amine], in test [1], the IC50 is 150 to 500 nM. Moreover, in test [2], the Abtot/Ab42 selectivity ranges entry is given as “b (b: 100 fold > selectivity ≧ 50 fold)”.
On to `COc1cc(NC(=O)c2nnn3c2CCC3c2ccc(Cl)c(Cl)c2)ccc1-n1cnc(C)c1` (centres unmarked) [Example 34, 6-(3,4-dichlorophenyl)-N-(3-methoxy-4-(4-methyl-1H-imidazol-1-yl)phenyl)-5,6-dihydro-4H-pyrrolo[1,2-c][1,2,3]triazole-3-carboxamide], for which, in test [1], the IC50 was no more than 150 nM. In addition, the Abtot/Ab42 selectivity ranges result in test [2] is “a (a: selectivity ≧ 100 fold)”.
Turning to `COc1cc(NC(=O)c2nnn3c2CCC3c2ccccc2Cl)ccc1-c1cnn(C)c1` (centres unmarked) [Example 33, 6-(2-chlorophenyl)-N-(3-methoxy-4-(1-methyl-1H-pyrazol-4-yl)phenyl)-5,6-dihydro-4H-pyrrolo[1,2-c][1,2,3]triazole-3-carboxamide], in test [1], the IC50 is 500 to 1000 nM. Also, in test [2], the Abtot/Ab42 selectivity ranges result is recorded as “c (c: 50 fold > selectivity ≧ 10 fold)”.
For the compound `COc1cc(N(C)C(=O)c2nnn3c2CCCC3c2ccc(Cl)cc2)ccc1-n1cnc(C)c1` (centres unmarked) [Example 48, 7-(4-chlorophenyl)-N-(3-methoxy-4-(4-methyl-1H-imidazol-1-yl)phenyl)-N-methyl-4,5,6,7-tetrahydro-[1,2,3]triazolo[1,5-a]pyridine-3-carboxamide], the IC50 in test [1] was less than 1000 nM. The Abtot/Ab42 selectivity ranges result in test [2] is “a (a: selectivity ≧ 100 fold)”.
The corresponding values for `COc1cc(NC(=O)c2nnn3c2CCC[C@H]3c2ccc(Cl)cc2)ccc1-n1cnc(C)c1` [Example 24, (S)-7-(4-chlorophenyl)-N-(3-methoxy-4-(4-methyl-1H-imidazol-1-yl)phenyl)-4,5,6,7-tetrahydro-[1,2,3]triazolo[1,5-a]pyridine-3-carboxamide] are 150 to 500 nM and “b (b: 100 fold > selectivity ≧ 50 fold)”.
As for `COc1cc(C(=O)Nc2nnn3c2CCC3c2ccc(F)cc2)ccc1-c1ccnc(C)c1` (centres unmarked) [Example 47, N-(6-(4-fluorophenyl)-5,-dihydro-4H-pyrrolo[1,2-c][1,2,3]triazol-3-yl)-3-methoxy-4-(2-methylpyridin-4-yl)benzamide], the IC50 in test [1] was less than 1000 nM. The Abtot/Ab42 selectivity ranges entry in test [2] is “d (d: 10 fold > selectivity)”.
The corresponding values for `COc1cc(NC(=O)c2nnn3c2CCCC3c2ccc(C(F)(F)F)cc2)ccc1-n1cnc(C)c1` (centres unmarked) [Example 25, N-(3-methoxy-4-(4-methyl-1H-imidazol-1-yl)phenyl)-7-(4-(trifluoromethyl)phenyl)-4,5,6,7-tetrahydro-[1,2,3]triazolo[1,5-a]pyridine-3-carboxamide] are no more than 150 nM and “c (c: 50 fold > selectivity ≧ 10 fold)”.
Take `COc1cc(Nc2nnn3c2CCCC3c2ccc(F)cc2)ccc1-n1cnc(C)c1` (centres unmarked) [Example 7, 7-(4-fluorophenyl)-N-(3-methoxy-4-(4-methyl-1H-imidazol-1-yl)phenyl)-4,5,6,7-tetrahydro-[1,2,3]triazolo[1,5-a]pyridin-3-amine]: in test [1], the IC50 fell in the range of 150 to 500 nM. For the same compound, the Abtot/Ab42 selectivity ranges entry in test [2] is “b (b: 100 fold > selectivity ≧ 50 fold)”.
As to `COc1nc(NC(=O)c2nnn3c2CCCC3c2ccc(Cl)cc2)ccc1-n1cnc(C)c1` (centres unmarked) [Example 15, 7-(4-chlorophenyl)-N-(6-methoxy-5-(4-methyl-1H-imidazol-1-yl)pyridin-2-yl)-4,5,6,7-tetrahydro-[1,2,3]triazolo[1,5-a]pyridine-3-carboxamide], the IC50 in test [1] lay in the range of 500 to 1000 nM. Also, the Abtot/Ab42 selectivity ranges entry in test [2] was “c (c: 50 fold > selectivity ≧ 10 fold)”.
As to `COc1cc(NC(=O)c2nnn3c2CCC3c2ccc(F)cc2)ccc1-n1cnc(C)c1` (centres unmarked) [Example 36, 6-(4-fluorophenyl)-N-(3-methoxy-4-(4-methyl-1H-imidazol-1-yl)phenyl)-5,6-dihydro-4H-pyrrolo[1,2-c][1,2,3]triazole-3-carboxamide], the IC50 in test [1] lay within 150 to 500 nM. Besides, in test [2], the Abtot/Ab42 selectivity ranges entry is listed as “b (b: 100 fold > selectivity ≧ 50 fold)”.
Take `COc1cc(Nc2nnn3c2CCCC3c2ccc(Cl)c(Cl)c2)ccc1-n1cnc(C)c1` (centres unmarked) [Example 5, 7-(3,4-dichlorophenyl)-N-(3-methoxy-4-(4-methyl-1H-imidazol-1-yl)phenyl)-4,5,6,7-tetrahydro-[1,2,3]triazolo[1,5-a]pyridin-3-amine]: the IC50 in test [1] was in the range of 150 to 500 nM. Moreover, in test [2], the Abtot/Ab42 selectivity ranges entry is “b (b: 100 fold > selectivity ≧ 50 fold)”.
Take `COc1cc(NC(=O)c2nnn3c2CCCC3c2ccccc2C(F)(F)F)ccc1-n1cnc(C)c1` (centres unmarked) [Example 18, N-(3-methoxy-4-(4-methyl-1Himidazol-1-yl)phenyl)-7-(2-(trifluoromethyl)phenyl)-4,5,6,7-tetrahydro-[1,2,3]triazolo[1,5-a]pyridine-3-carboxamide]: the IC50 in test [1] was 150 to 500 nM. Also, the Abtot/Ab42 selectivity ranges result in test [2] is reported as “c (c: 50 fold > selectivity ≧ 10 fold)”.
The corresponding values for `Cc1cn(-c2ccc(NC(=O)c3nnn4c3CCCC4c3ccc(Cl)cc3)cc2F)cn1` (centres unmarked) [Example 14, 7-(4-chlorophenyl)-N-(3-fluoro-4-(4-methyl-1H-imidazol-1-yl)phenyl)-4,5,6,7-tetrahydro-[1,2,3]triazolo[1,5-a]pyridine-3-carboxamide] are 150 to 500 nM and “c (c: 50 fold > selectivity ≧ 10 fold)”.
In the same order, the values of `COc1cc(NC(=O)c2nnn3c2CCC3c2ccc(F)cc2)ccc1-c1cnn(C)c1` (centres unmarked) [Example 37, 6-(4-fluorophenyl)-N-(3-methoxy-4-(1-methyl-1H-pyrazol-4-yl)phenyl)-5,6-dihydro-4H-pyrrolo[1,2-c][1,2,3]triazole-3-carboxamide] are less than 1000 nM and “c (c: 50 fold > selectivity ≧ 10 fold)”.
In the same order, the values of `COc1cc(C(=O)Nc2nnn3c2CCCC3c2ccc(Cl)cc2)ccc1-n1cnc(C)c1` (centres unmarked) [Example 40, N-(7-(4-chlorophenyl)-4,5,6,7-tetrahydro-[1,2,3]triazolo[1,5-a]pyridin-3-yl)-3-methoxy-4-(4-methyl-1H-imidazol-1-yl)benzamide] are 150 to 500 nM and “b (b: 100 fold > selectivity ≧ 50 fold)”.
For the compound `COc1cc(Nc2nnn3c2CCCC3c2cccc(C(F)(F)F)c2)ccc1-n1cnc(C)c1` (centres unmarked) [Example 6, N-(3-methoxy-4-(4-methyl-1H-imidazol-1-yl)phenyl)-7-(3-(trifluoromethyl)phenyl)-4,5,6,7-tetrahydro-[1,2,3]triazolo[1,5-a]pyridin-3-amine], the IC50 in test [1] lay in the range of 150 to 500 nM. For the same compound, in test [2], the Abtot/Ab42 selectivity ranges result was “b (b: 100 fold > selectivity ≧ 50 fold)”.
For `COc1cc(Nc2nnn3c2CCC3c2ccc(F)cc2)ccc1-n1cnc(C)c1` (centres unmarked) [Example 10, 6-(4-fluorophenyl)-N-(3-methoxy-4-(4-methyl-1H-imidazol-1-yl)phenyl)-5,6-dihydro-4H-pyrrolo[1,2-c][1,2,3]triazol-3-amine], the IC50 in test [1] is 150 to 500 nM. In addition, the Abtot/Ab42 selectivity ranges entry in test [2] is listed as “a (a: selectivity ≧ 100 fold)”.
For `COc1cc(Nc2nnn3c2CCC3c2ccc(Cl)cc2)ccc1-n1cnc(C)c1` (centres unmarked) [Example 8, 6-(4-chlorophenyl)-N-(3-methoxy-4-(4-methyl-1H-imidazol-1-yl)phenyl)-5,6-dihydro-4H-pyrrolo[1,2-c][1,2,3]triazol-3-amine], in test [1], the IC50 lay in the range of 150 to 500 nM. In addition, the Abtot/Ab42 selectivity ranges result in test [2] is reported as “a (a: selectivity ≧ 100 fold)”.
On to `COc1cc(NC(=O)c2nnn3c2CCC3c2ccc(Cl)c(Cl)c2)ccc1-c1cnn(C)c1` (centres unmarked) [Example 35, 6-(3,4-dichlorophenyl)-N-(3-methoxy-4-(1-methyl-1H-pyrazol-4-yl)phenyl)-5,6-dihydro-4H-pyrrolo[1,2-c][1,2,3]triazole-3-carboxamide], for which the IC50 in test [1] lay in the range of 150 to 500 nM. The Abtot/Ab42 selectivity ranges result in test [2] was “c (c: 50 fold > selectivity ≧ 10 fold)”.
As for `COc1cc(Nc2nnn3c2CCC3c2ccccc2Cl)ccc1-n1cnc(C)c1` (centres unmarked) [Example 11, 6-(2-chlorophenyl)-N-(3-methoxy-4-(4-methyl-1H-imidazol-1-yl)phenyl)-5,6-dihydro-4H-pyrrolo[1,2-c][1,2,3]triazol-3-amine], the IC50 in test [1] is 150 to 500 nM. Also, in test [2], the Abtot/Ab42 selectivity ranges entry was “b (b: 100 fold > selectivity ≧ 50 fold)”.
